# Test results as given in patent publication US20230117324A1, “OXAZINE MONOACYLGLYCEROL LIPASE (MAGL) INHIBITORS” (Hoffmann-La Roche Inc., priority 2018, published 2023).
# Biological target: T1, MAGL (Homo sapiens, UniProt Q99685)
# T1 sequence (Q99685 1-303): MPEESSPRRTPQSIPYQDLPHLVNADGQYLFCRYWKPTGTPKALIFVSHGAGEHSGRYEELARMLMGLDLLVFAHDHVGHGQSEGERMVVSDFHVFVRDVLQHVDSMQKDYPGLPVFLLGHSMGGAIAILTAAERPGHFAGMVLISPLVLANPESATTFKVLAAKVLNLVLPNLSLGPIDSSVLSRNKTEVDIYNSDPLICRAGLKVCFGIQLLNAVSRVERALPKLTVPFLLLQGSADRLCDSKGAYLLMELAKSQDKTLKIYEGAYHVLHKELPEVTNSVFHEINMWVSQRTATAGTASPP
# Experiment: MAGL inhibition, 2-AG assay (hydrolysis of 2-arachidonoylglycerol, arachidonic acid by mass spectrometry)
# Assay type: biochemical
# Conditions: 2-AG assay (footnote [b])
# How it was run: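 Hydrolysis of 8 μM 2-arachidonoylglycerol by […] was run for 30 min at RT after a 15 min compound preincubation, in Tris/EDTA/Tween buffer. Test compounds spanned […]. The product was measured by online SPE-MS/MS (transitions 303.1→259.1 and 311.1→267.0), and activity was derived from the arachidonic acid/d8-arachidonic acid signal ratio.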
row,Compound,IC50
1,"CC(C)(C)OC(=O)NCCOCCC(=O)NCCOc1cccc(C(c2ccccc2)C2CCN(C(=O)N3CC[C@@H]4OCC(=O)N[C@@H]4C3)CC2)c1 (stereo partly drawn) [Example 255, tert-Butyl N-[2-[3-[2-[3-[[1-[(4aR,8aS)-3-oxo-4,4a,5,7,8,8a-hexahydropyrido[4,3-b][1,4]oxazine-6-carbonyl]-4-piperidyl]-phenyl-methyl]phenoxy]ethylamino]-3-oxo-propoxy]ethyl]carbamate]",2 nM
2,"CC(C)(C)OC(=O)NCCOCCOCCC(=O)NCCOc1cccc(C(c2ccccc2)C2CCN(C(=O)N3CC[C@@H]4OCC(=O)N[C@@H]4C3)CC2)c1 (stereo partly drawn) [Example 256, tert-Butyl N-[2-[2-[3-[2-[3-[[1-[(4aR,8aS)-3-oxo-4,4a,5,7,8,8a-hexahydropyrido[4,3-b][1,4]oxazine-6-carbonyl]-4-piperidyl]-phenyl-methyl]phenoxy]ethylamino]-3-oxo-propoxy]ethoxy]ethyl]carbamate]",2 nM
3,"O=C1CO[C@H]2CCN(C(=O)N3CC(c4ccn(-c5ccc(Cl)cc5Cl)n4)C3)C[C@H]2N1 [Example 257, (4aR,8aS)-6-[3-[1-(2,4-Dichlorophenyl)pyrazol-3-yl]azetidine-1-carbonyl]-4,4a,5,7,8,8a-hexahydropyrido[4,3-b][1,4]oxazin-3-one]",233 nM
4,"CCCOc1ccc(C2CN(C(=O)N3CC[C@@H]4OCC(=O)N[C@@H]4C3)C2)cc1 [Example 258, (4aR,8aS)-6-[3-(4-Propoxyphenyl)azetidine-1-carbonyl]-4,4a,5,7,8,8a-hexahydropyrido[4,3-b][1,4]oxazin-3-one]",5 nM
5,"Cc1ccc(C2CN(C(=O)N3CC[C@@H]4OCC(=O)N[C@@H]4C3)C2)cc1C [Example 259, (4aR,8aS)-6-[3-(3,4-Dimethylphenyl)azetidine-1-carbonyl]-4,4a,5,7,8,8a-hexahydropyrido [4,3-b][1,4]oxazin-3-one]",30 nM
6,"CCNC(=O)c1cc(C)ccc1-c1ccc(C2CN(C(=O)N3CC[C@@H]4OCC(=O)N[C@@H]4C3)C2)cc1 [Example 260, 2-[4-[1-[(4aR,8aS)-3-Oxo-4,4a,5,7,8,8a-hexahydropyrido[4,3-b][1,4]oxazine-6-carbonyl]azetidin-3-yl]phenyl]-N-ethyl-5-methyl-benzamide]",3 nM
7,"CC(C)(C)Cc1ccc(C2CN(C(=O)N3CC[C@@H]4OCC(=O)N[C@@H]4C3)C2)cc1 [Example 261, (4aR,8aS)-6-[3-[4-(2,2-Dimethylpropyl)phenyl]azetidine-1-carbonyl]-4,4a,5,7,8,8a-hexahydropyrido[4,3-b][1,4]oxazin-3-one]",0.07 nM
8,"CC(C)(C)Oc1ccc(C2CN(C(=O)N3CC[C@@H]4OCC(=O)N[C@@H]4C3)C2)cc1 [Example 262, (4aR,8aS)-6-[3-(4-tert-Butoxyphenyl)azetidine-1-carbonyl]-4,4a,5,7,8,8a-hexahydropyrido[4,3-b][1,4]oxazin-3-one]",1 nM
9,"O=C1CO[C@H]2CCN(C(=O)N3CCC(N4CCc5cc(Cl)ccc54)CC3)C[C@H]2N1 [Example 263, (4aR,8aS)-6-[4-(5-Chloroindolin-1-yl)piperidine-1-carbonyl]-4,4a,5,7,8,8a-hexahydropyrido[4,3-b][1,4]oxazin-3-one]",16 nM
10,"O=C1CO[C@H]2CCN(C(=O)N3CCC(N4Cc5cccc(Cl)c5C4)CC3)C[C@H]2N1 [Example 264, (4aR,8aS)-6-[4-(4-Chloroisoindolin-2-yl)piperidine-1-carbonyl]-4,4a,5,7,8,8a-hexahydropyrido[4,3-b][1,4]oxazin-3-one]",146 nM
11,"O=C1CO[C@H]2CCN(C(=O)N3CCC(N4CC5(CC5)c5cc(Cl)ccc54)CC3)C[C@H]2N1 [Example 265, (4aR,8aS)-6-[4-(5′-Chlorospiro[cyclopropane-1,3′-indoline]-1′-yl)piperidine-1-carbonyl]-4,4a,5,7,8,8a-hexahydropyrido[4,3-b][1,4]oxazin-3-one]",58 nM
12,"O=C1CO[C@H]2CCN(C(=O)N3CC(N4Cc5cccc(Cl)c5C4)C3)C[C@H]2N1 [Example 266, (4aR,8aS)-6-[3-(4-Chloroisoindolin-2-yl)azetidine-1-carbonyl]-4,4a,5,7,8,8a-hexahydropyrido[4,3-b][1,4]oxazin-3-one]",457 nM
13,"O=C1CO[C@H]2CCN(C(=O)N3CCC(c4cn(CCO)c5ccc(Cl)cc45)CC3)C[C@@H]2N1 [Example 269, (4aS,8aS)-6-[4-[5-Chloro-1-(2-hydroxyethyl)indol-3-yl]piperidine-1-carbonyl]-4,4a,5,7,8,8a-hexahydropyrido[4,3-b][1,4]oxazin-3-one]",530 nM
14,"O=C1CO[C@H]2CCN(C(=O)N3CC(c4ccc(N5CCC(C(F)(F)F)C5)cn4)C3)C[C@H]2N1 (stereo partly drawn) [Example 270, (4aR,8aS)-6-(3-(5-(3-(Trifluoromethyl)pyrrolidin-1-yl)pyridin-2-yl)azetidine-1-carbonyl)hexahydro-2H-pyrido[4,3-b][1,4]oxazin-3(4H)-one]",26 nM
15,"O=C1CO[C@H]2CCN(C(=O)N3CC(c4ccc(N5CCC(C(F)(F)F)C5)nc4)C3)C[C@H]2N1 (stereo partly drawn) [Example 273, (4aR,8aS)-6-[3-[6-[3-(Trifluoromethyl)pyrrolidin-1-yl]-3-pyridyl]azetidine-1-carbonyl]-4,4a,5,7,8,8a-hexahydropyrido[4,3-b][1,4]oxazin-3-one]",2 nM
16,"O=C1CO[C@H]2CCN(C(=O)N3CC(c4ccc(N5CCC(C(F)(F)F)C5)nc4)C3)C[C@H]2N1 (stereo partly drawn) [Example 275, (4aR,8aS)-6-[3-[6-[3S-or 3R-(trifluoromethyl)pyrrolidin-1-yl]-3-pyridyl]azetidine-1-carbonyl]-4,4a,5,7,8,8a-hexahydropyrido[4,3-b][1,4]oxazin-3-one]",4 nM
17,"O=C1CO[C@H]2CCN(C(=O)N3CC(c4ccc(C5CCCOC5)cc4)C3)C[C@H]2N1 (stereo partly drawn) [Example 276, (4aR,8aS)-6-[3-(4-Tetrahydropyran-3-ylphenyl)azetidine-1-carbonyl]-4,4a,5,7,8,8a-hexahydropyrido[4,3-b][1,4]oxazin-3-one]",4 nM
18,"COc1cc(CC(F)(F)F)ccc1C1CN(C(=O)N2CC[C@@H]3OCC(=O)N[C@@H]3C2)C1 [Example 277, (4aR,8aS)-6-[3-[2-Methoxy-4-(2,2,2-trifluoroethyl)phenyl]azetidine-1-carbonyl]-4,4a,5,7,8,8a-hexahydropyrido[4,3-b][1,4]oxazin-3-one]",2 nM
19,"CC(C)(C)COc1ccc(C2CN(C(=O)N3CC[C@@H]4OCC(=O)N[C@@H]4C3)C2)cc1 [Example 278, (4aR,8aS)-6-(3-(4-(Neopentyloxy)phenyl)azetidine-1-carbonyl)hexahydro-2H-pyrido[4,3-b][1,4]oxazin-3(4H)-one]",0.1 nM
